Assay results taken from patent US6821980B1, “Substituted 5-benzyl-2,4-diaminopyrimidines” (Basilea Pharmaceutica AG, priority 1999, dated 2004).
In brackets after ≈: the same amount, converted by molar mass. Like-named read-outs stand apart in the source and are kept apart here.

Key:
[1] = tested on: Staphylococcus aureus 101; experiment: MIC against Staphylococcus aureus 101; format: cell-based; details: Staphylococcus aureus 101, MRSA- and trimethoprim-resistant, clinical isolate; for MIC: read-out: MIC Sa101
[2] = biological target: T1, purified DHFR of strain Sp1/1 of Streptococcus pneumoniae (Streptococcus pneumoniae serotype 4, UniProt Q54801); format: biochemical; details: IC50 against purified DHFR of strain Sp1/1
T1 sequence (Q54801 1-168 I100L): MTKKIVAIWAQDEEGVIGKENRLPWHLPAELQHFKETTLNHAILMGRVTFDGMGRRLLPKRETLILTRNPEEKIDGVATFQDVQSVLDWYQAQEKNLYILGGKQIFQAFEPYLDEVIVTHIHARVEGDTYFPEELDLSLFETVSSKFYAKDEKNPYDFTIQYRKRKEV

[3] = biological target: purified DHFR of strain 157/4696 of Staphylococcus aureus (Staphylococcus aureus, UniProt P13955); experiment: biochemical
[4] = tested on: Streptococcus pneumoniae 1/1; experiment: MIC against Streptococcus pneumoniae 1/1; format: cell-based; details: Streptococcus pneumoniae 1/1, trimethoprim- and penicillin-resistant, serotype 6, clinical isolate; for MIC: read-out: MIC Sp1/1
[5] = Table 2, IC50 against purified DHFR of strain 157/4696 (highly trimethoprim-resistant; clinical isolate), read-out: DHFR Sa1

Sequence of purified DHFR of strain 157/4696 of Staphylococcus aureus (P13955 whole entry): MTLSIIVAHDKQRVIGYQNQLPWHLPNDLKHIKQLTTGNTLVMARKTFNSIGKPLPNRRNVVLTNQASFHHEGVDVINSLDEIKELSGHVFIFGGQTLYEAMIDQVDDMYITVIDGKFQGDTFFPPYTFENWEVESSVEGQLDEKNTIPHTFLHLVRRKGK

Row | Molecule | MIC ([1]; Table 2) [µg/mL] | IC50 ([2]; Table 2) [nM] | IC50 [3] [nM] | MIC ([4]; Table 2) [µg/mL] | MIC Sa101 ([1]; Table 2) [µg/mL] | IC50 [3, 5] [nM] | MIC Sp1/1 ([4]; Table 2) [µg/mL] | MIC ([1]; Table 1) [µg/mL] | IC50 ([2]; Table 1) [nM] | MIC ([4]; Table 1) [µg/mL]
1 | CCOc1cc(Cc2cnc(N)nc2N)cc(OS(=O)(=O)C(C)C)c1-c1ccc(OC)c(N)c1 [Example 33-a, Propane-2-sulphonic acid 3′-amino-4-(2,4-diamino-pyrimidin-5-ylmethyl)-6-ethoxy-4′-methoxy-4-ylmethyl-biphenyl-2-yl ester] | 1 (≈ 2.05 µM) | 12 | 65 | 1 (≈ 2.05 µM) | – | – | – | – | – | –
2 | 5-[4′-Amino-2-[(2-tetrahydropyran-4-yl)-ethoxy]-6-ethoxy-4′-methyl-biphenyl-4-ylmethyl]-pyrimidine-2,4-diamine [Example 11-b] | – | 9.8 | – | – | 8 | 900 | 1 | – | – | –
3 | CCOc1cc(Cc2cnc(N)nc2N)cc(OCC)c1-c1ccc(CN2CCOCC2)s1 [Example 02-ac, 5-f3,5-Diethoxy-4-(5-morpholin-4-ylmethyl-thiophen-2-yl)-benzyl-pyrimidine-2,4-diamine] | 8 (≈ 17 µM) | 65 | 650 | 2 (≈ 4.26 µM) | – | – | – | – | – | –
4 | CCOc1cc(Cc2cnc(N)nc2N)cc(OS(=O)(=O)N2CCCC2)c1-c1ccc(NC)cc1 [Example 26-e, Pyrrolidine-1-sulphonic acid 4-(2,4-diamino-pyrimidin-5-ylmethyl)-6-ethoxy-4′-methylamino-biphenyl-2-yl ester] | 1 (≈ 2.01 µM) | 2.3 | 130 | 1 (≈ 2.01 µM) | – | – | – | – | – | –
5 | CCOc1cc(Cc2cnc(N)nc2N)cc(OS(=O)(=O)N2CCCC2)c1-c1ccc(N)cc1 [Example 22-c, Pyrrolidine-1-sulphonic acid 4′-amino-4-(2,4-diamino-Ryrimidin-5-ylmethyl)-6-ethoxy-biphenyl-2-yl ester] | 1 (≈ 2.06 µM) | 3.3 | 140 | 1 (≈ 2.06 µM) | – | – | – | – | – | –
6 | CCOc1cc(Cc2cnc(N)nc2N)cc(OS(=O)(=O)C(C)C)c1-c1ccc(N)cc1 [Example 18, Propane-2-sulphonic acid 4′-amino-4-(2,4-diamino-pyrimidin-5-ylmethyl)-6-ethoxy-biphenyl-2-yl ester] | – | – | 39 | – | – | – | – | 2 (≈ 4.37 µM) | 5.6 | 1 (≈ 2.19 µM)
7 | CCOc1cc(Cc2cnc(N)nc2N)cc(OS(=O)(=O)N2CCOCC2)c1-c1ccc(O)cc1 [Example 20-d, Morpholine-4-sulphonic acid 4-(2,4-diamino-pyrimidin-5-ylmethyl)-6-ethoxy-4′-hydroxy-biphenyl-2-yl ester] | 8 (≈ 16 µM) | 5.8 | 95 | 1 (≈ 1.99 µM) | – | – | – | – | – | –
8 | CCOc1cc(Cc2cnc(N)nc2N)cc(OS(=O)C(C)(C)C)c1-c1ccc(O)cc1 (centres unmarked) [Example 15-i, 2-Methyl-propane-2-sulphinic acid 4-(2,4-diamino-pyrimidin-5-ylmethyl)-6-ethoxy-4′-hydroxy-biphenyl-2-yl ester] | 2 (≈ 4.38 µM) | 22 | 81 | 4 (≈ 8.76 µM) | – | – | – | – | – | –
9 | CCOc1cc(Cc2cnc(N)nc2N)cc(OS(=O)(=O)C2CC2)c1-c1ccc(O)cc1 [Example 15-e, Cylopropanesulphonic acid 4-(2,4-diamino-pyrimidin-5-ylmethyl)-6-ethoxy-4′-hydroxn-biphenyl-2-yl ester] | 8 (≈ 17.5 µM) | 12 | 94 | 1 (≈ 2.19 µM) | – | – | – | – | – | –
10 | CCOc1cc(Cc2cnc(N)nc2N)cc(OS(=O)(=O)C(C)CC)c1-c1ccc(OCCO)cc1 (centres unmarked) [Example 61-b] | 2 (≈ 3.87 µM) | 11 | 210 | 1 (≈ 1.94 µM) | – | – | – | – | – | –
11 | CCOc1cc(Cc2cnc(N)nc2N)cc(OCC)c1-c1ccc2c(c1)OCO2 [Example 02-r, 5-(4-Benzo[1,3]dioxol-5-yl-3,5-diethoxy-benzyl)-pyrimidine-2,4-diamine] | 4 (≈ 9.79 µM) | 70 | 2500 | 4 (≈ 9.79 µM) | – | – | – | – | – | –
12 | CCOc1cc(Cc2cnc(N)nc2N)cc(OS(C)(=O)=O)c1-c1ccc2c(c1)OCO2 [Example 17-a, Methanesulphonic acid 2-benzof[1,3]dioxol-5-yl-5-(2,4-diamino-Ryrimidin-5-ylmethyl)-3-ethoxy-phenyl ester] | 4 (≈ 8.72 µM) | 38 | 600 | 2 (≈ 4.36 µM) | – | – | – | – | – | –
13 | CCOc1cc(Cc2cnc(N)nc2N)cc(OS(=O)(=O)C2CC2)c1-c1cccc(N)c1 [Example 34-a, Cyclopropanesulphonic acid 3′-amino-4-(2,4-diamino-pyrimidin-5-ylmethyl)-6-ethoxy-bilphenyl-2-yl ester] | 2 (≈ 4.39 µM) | 9.2 | 270 | 1 (≈ 2.2 µM) | – | – | – | – | – | –
14 | CCOc1cc(Cc2cnc(N)nc2N)cc(OCC2CC2)c1-c1ccc2c(c1)OCO2 [Example 10-b, 5-(4-Benzo[1.3]dioxol-5-yl-3-cyclopropylmethoxy-5-ethoxy-benzyl)-pyrimidine-2,4-diamine] | 8 (≈ 18.4 µM) | 40 | 2400 | 2 (≈ 4.6 µM) | – | – | – | – | – | –
15 | 5-[2-Cyclopropylmethyl-6-ethoxy-4′-(2-morpholin-4-yl-ethoxy)-biphenyl-4-ylmethyl]-pyrimidine-2,4-diamine [Example 56-] | – | 32 | – | – | 8 | 800 | 2 | – | – | –
16 | CCOc1cc(Cc2cnc(N)nc2N)cc(OC2CCCC2COC)c1-c1ccc(O)cc1 (racemic) [Example 08-v, rac-(E)-5-[6-Ethoxy-4′-hydroxy-2-(2-methoxymethyl-cyclopentyloxy)-biphenyl-4-ylmethyl]-pyrimidine-2,4-diamine] | 8 (≈ 17.2 µM) | 82 | 1500 | 2 (≈ 4.31 µM) | – | – | – | – | – | –
17 | CCCS(=O)(=O)Oc1cc(Cc2cnc(N)nc2N)cc(OCC)c1-c1cc(N)cc(F)c1 [Example 32-f, Propane-1-sulphonic acid 3′-amino-4-(2,4-diamino-pyrimidin-5-ylmethyl)-6-ethoxy-5′-fluoro-4-ylmethyl-biphenyl-2-yl ester] | – | 30 | – | – | 4 (≈ 8.41 µM) | 420 | 1 (≈ 2.1 µM) | – | – | –
18 | CCOc1cc(Cc2cnc(N)nc2N)cc(OCC)c1-c1cccc(C=O)c1 [Example 04-u, 4′-(2,4-Diamino-pyrimidin-5-ylmethyl)-2′,6′-diethoxy-biphenyl-3-carbaldehyde] | 8 (≈ 20.4 µM) | 65 | 1900 | 4 (≈ 10.2 µM) | – | – | – | – | – | –
19 | CCOc1cc(Cc2cnc(N)nc2N)cc(OCCC2CCCCO2)c1-c1cccc(N)c1 (racemic) [Example 07-h, (RS)-5-[3′-Amino-6-ethoxy-2-[2-(tetrahydro-pyran-2-yl)-ethoxy]-biphenyl-4-ylmethyl]-2yrimidine-2,4-diamine] | 8 (≈ 17.3 µM) | 27 | 2200 | 2 (≈ 4.31 µM) | – | – | – | – | – | –
20 | CCOc1cc(Cc2cnc(N)nc2N)cc(OS(=O)(=O)N(C)C)c1-c1ccc(N)c(F)c1 [Example 28-a, Dimethylsullhamic acid 4′-amino-4-(2,4-diamino-pyrimidin-5-ylmethyl)-6-ethoxy-3′-fluoro-biphenyl-2-yl ester] | 2 (≈ 4.2 µM) | 5.8 | 320 | 1 (≈ 2.1 µM) | – | – | – | – | – | –
21 | CCOc1cc(Cc2cnc(N)nc2N)cc(OCC)c1-c1ccc(SC)nc1 [Example 03-e, 5-[3,5-Diethoxy-4-(6-methylsulphanyl-pyridin-3-yl)-benzyl]-pyrimidine-2,4-diamine] | 8 (≈ 19.4 µM) | 80 | 2100 | 4 (≈ 9.72 µM) | – | – | – | – | – | –
22 | CCCS(=O)(=O)Oc1cc(Cc2cnc(N)nc2N)cc(OCC)c1-c1ccc(OC)c(N)c1 [Example 32-d, Propane-1-sulphonic acid 3′-amino-4-(2,4-diamino-pyrimidin-5-ylmethyl)-6-ethoxy-4′-methoxy-4-ylmethyl-biphenyl-2-yl ester] | – | 5.9 | – | – | 2 (≈ 4.1 µM) | 140 | 1 (≈ 2.05 µM) | – | – | –
23 | CCOc1cc(Cc2cnc(N)nc2N)cc(OS(C)(=O)=O)c1-c1ccc(OC)cc1 [Example 16-a, Methanesulphonic acid 4-(2,4-diamino-pyrimidin-5-ylmethyl)-6-ethoxy-4′-methoxy-biphenyl-2-yl ester] | 4 (≈ 9 µM) | 21 | 310 | 2 (≈ 4.5 µM) | – | – | – | – | – | –
24 | CCOc1cc(Cc2cnc(N)nc2N)cc(OS(=O)(=O)N2CCOCC2)c1-c1ccc(NC)cc1 [Example 26c, Morpholine-4-sulphonic acid 4-(2,4-diamino-pyrimidin-5-ylmethyl)-6-ethoxy-4′-methylamino-biphenyl-2-yl ester] | – | – | 56 | – | – | – | – | 1 (≈ 1.94 µM) | 3.2 | 0.5 (≈ 0.972 µM)
25 | CCOc1cc(Cc2cnc(N)nc2N)cc(OCC)c1-c1cc(C)nc(C)c1 [Example 03-d, 5-[4-(2,6-Dimethyl-pyridin-4-yl)-3,5-diethoxy-benzyl]-pyrimidine-2,4-diamine] | 8 (≈ 20.3 µM) | 340 | 6000 | 8 (≈ 20.3 µM) | – | – | – | – | – | –
26 | CCOc1cc(Cc2cnc(N)nc2N)cc(OS(C)(=O)=O)c1-c1ccc(O)cc1 [Example 15-a, Methanesulphonic acid 4-(2,4-diamino-pyrimidin-5-ylmethyl)-6-ethoxy-4′-hydroxy-biphenyl-2-yl ester] | 8 (≈ 18.6 µM) | 32 | 550 | 4 (≈ 9.29 µM) | – | – | – | – | – | –
